Results on 21 compounds are retold here after patent US20260347347A1, “2-AZA-AND 2-OXABICYCLO[2.1.1]HEXANE DERIVATIVES AS FACTOR XIIA ENZYME INHIBITORS” (KALVISTA PHARMACEUTICALS LIMITED, priority 2022, published 2026).

The first experiment addresses T1, Human Factor XIIa (Homo sapiens, UniProt P00748).
T1 construct: purchased Enzyme Research Laboratories
T1 sequence (P00748 373-615 limits assumed): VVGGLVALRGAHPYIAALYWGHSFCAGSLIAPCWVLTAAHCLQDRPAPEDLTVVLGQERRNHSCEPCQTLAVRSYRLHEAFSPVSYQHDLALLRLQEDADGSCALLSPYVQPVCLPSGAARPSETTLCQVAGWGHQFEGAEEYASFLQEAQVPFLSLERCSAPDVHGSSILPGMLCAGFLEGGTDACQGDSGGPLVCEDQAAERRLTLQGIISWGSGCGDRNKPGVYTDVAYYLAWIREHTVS
T1 sequence (P00748 20-372 partner limits assumed): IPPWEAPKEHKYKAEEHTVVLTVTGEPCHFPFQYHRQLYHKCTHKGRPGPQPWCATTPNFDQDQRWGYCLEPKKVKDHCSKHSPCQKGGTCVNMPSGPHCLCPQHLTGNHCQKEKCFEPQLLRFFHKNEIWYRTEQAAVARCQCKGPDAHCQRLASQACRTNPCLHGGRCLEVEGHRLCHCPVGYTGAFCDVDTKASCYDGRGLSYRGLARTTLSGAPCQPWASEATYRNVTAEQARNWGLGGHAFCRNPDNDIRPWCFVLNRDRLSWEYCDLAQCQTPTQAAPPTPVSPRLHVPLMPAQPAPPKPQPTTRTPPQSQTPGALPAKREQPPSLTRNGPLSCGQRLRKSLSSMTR
In words: Determination of FXIIa inhibition (in vitro IC50 assay, fluorogenic substrate H-DPro-Phe-Arg-AFC). The class given is biochemical. The following applies: human Factor XIIa; fluorogenic substrate H-DPro-Phe-Arg-AFC at Km concentration; 5 min, 25 °C; class symbols H1/H2 for % inhibition at top concentration. The procedure: In vitro inhibition of Factor XIIa was determined using an IC50 assay based on standard literature methods (see e.g Baeriswyl et al., ACS Chem. Biol., 2015, 10 (8) 1861; Bouckaert et al., European Journal of Medicinal Chemistry 110 (2016) 181). Human Factor XIIa (Enzyme Research Laboratories) was incubated at 25 °C with the fluorogenic substrate H-DPro-Phe-Arg-AFC (Peptide Protein Science) and various concentrations of the test compound. Protease activity was measured by monitoring the accumulation of liberated fluorescence from the substrate over 5 min at 25 °C. The linear rate of fluorescence increase per minute was expressed as percentage (%) activity. The Km for the cleavage of the substrate by FXIIa was determined by standard transformation of the Michaelis-Menten equation. The compound inhibitor assays were performed at substrate Km concentration. IC50 values were calculated as the concentration of inhibitor giving 50% inhibition (IC50) of the uninhibited enzyme activity (100%).
As to `Cc1cc(OCC23CN(C(=O)NC4(c5ccccc5)CC4)C(CNc4ccccc4C#N)(C2)C3)cc(=O)n1C` [Example 68, 1-(((2-cyanophenyl)amino)methyl)-4-(((1,6-dimethyl-2-oxo-1,2-dihydropyridin-4-yl)oxy)methyl)-N-(1-phenylcyclopropyl)-2-azabicyclo[2.1.1]hexane-2-carboxamide], the “Human FXIIa inhibition (compounds that did not achieve 50% inhibition)” value was “H1 (>20% inhibition @ 40 μM)”.

Staying with this experiment, now noted: human Factor XIIa; fluorogenic substrate H-DPro-Phe-Arg-AFC at Km concentration; 5 min, 25 °C; class symbols; read-out: Human FXIIa IC50.
A word on the IC50: it is the midpoint of a concentration-inhibition curve. With `Cc1cc(OCC23CN(C(=O)C(C)c4ccc5c(c4)CCO5)C(CNc4cccc5c(N)nccc45)(C2)C3)cc(=O)n1C` (stereo not drawn) [Example 28, 4-((1-(((1-aminoisoquinolin-5-yl)amino)methyl)-2-(2-(2,3-dihydrobenzofuran-5-yl)propanoyl)-2-azabicyclo[2.1.1]hexan-4-yl)methoxy)-1,6-dimethylpyridin-2(1H)-one], the IC50 was in the range of 10 to 100 nM.
Still for that read-out and setting: as for `Cn1ccc(OCC23CN(C(=O)Nc4ccc5c(c4)CCCO5)C(CNc4cccc5c(N)nccc45)(C2)C3)cc1=O` [Example 52, 1-(((1-aminoisoquinolin-5-yl)amino)methyl)-N-(chroman-6-yl)-4-(((1-methyl-2-oxo-1,2-dihydropyridin-4-yl)oxy)methyl)-2-azabicyclo[2.1.1]hexane-2-carboxamide], the figure is 0.1 to 1 nM.
Regarding `COCCOCCNC(=O)N1CC2(COc3ccn(C)c(=O)c3)CC1(CNc1cccc3c(N)nccc13)C2` [Example 73, 1-(((1-aminoisoquinolin-5-yl)amino)methyl)-N-(2-(2-methoxyethoxy)ethyl)-4-(((1-methyl-2-oxo-1,2-dihydropyridin-4-yl)oxy)methyl)-2-azabicyclo[2.1.1]hexane-2-carboxamide], the IC50 was 10 to 100 nM.
Still for that read-out and setting: as for `Cn1ccc(OCC23CN(C(=O)N4CCCCC4)C(CNc4cccc5c(N)nccc45)(C2)C3)cc1=O` [Example 54, 4-((1-(((1-aminoisoquinolin-5-yl)amino)methyl)-2-(piperidine-1-carbonyl)-2-azabicyclo[2.1.1]hexan-4-yl)methoxy)-1-methylpyridin-2(1H)-one], the figure is 10 to 100 nM.
On the same count and under the same terms, next, `Cn1ccc(OCC23CN(C(=O)C4(Cc5ccccc5)CC4)C(CNc4cccc5c(N)nccc45)(C2)C3)cc1=O` [Example 8, 4-((1-(((1-aminoisoquinolin-5-yl)amino)methyl)-2-(1-benzylcyclopropane-1-carbonyl)-2-azabicyclo[2.1.1]hexan-4-yl)methoxy)-1-methylpyridin-2(1H)-one]: 10 to 100 nM.
For the compound `Cc1cc(OCC23CN(C(=O)N4CC[C@@H](c5ccccc5)C4)C(CNc4cccc5c(N)nccc45)(C2)C3)cc(=O)n1C` [Example 45, (S)-4-((1-(((1-aminoisoquinolin-5-yl)amino)methyl)-2-(3-phenylpyrrolidine-1-carbonyl)-2-azabicyclo[2.1.1]hexan-4-yl)methoxy)-1,6-dimethylpyridin-2(1H)-one], the IC50 was 1 to 10 nM.
Same read-out and setting: as for `CO[C@H]1CC[C@@H](CC(=O)N2CC3(COc4cc(C)n(C)c(=O)c4)CC2(CNc2cccc4c(N)nccc24)C3)CC1` (single isomer, unassigned) [Example 25, 4-((1-(((1-aminoisoquinolin-5-yl)amino)methyl)-2-(2-((1s,4s)-4-methoxycyclohexyl)acetyl)-2-azabicyclo[2.1.1]hexan-4-yl)methoxy)-1,6-dimethylpyridin-2(1H)-one], the figure is 10 to 100 nM.
Same read-out and setting: next, `Cc1cc(OCC23CN(C(=O)N4CCCC5(CC5)C4)C(CNc4cccc5c(N)nccc45)(C2)C3)cc(=O)n1C` [Example 84, 4-((1-(((1-aminoisoquinolin-5-yl)amino)methyl)-2-(5-azaspiro[2.5]octane-5-carbonyl)-2-azabicyclo[2.1.1]hexan-4-yl)methoxy)-1,6-dimethylpyridin-2(1H)-one]: 10 to 100 nM; `Cn1ccc(OCC23CC(CNc4cccc5c(N)nccc45)(CN2C(=O)CCC2CCCCC2)C3)cc1=O` [Example 102, 4-((4-(((1-Aminoisoquinolin-5-yl)amino)methyl)-2-(3-cyclohexylpropanoyl)-2-azabicyclo[2.1.1]hexan-1-yl)methoxy)-1-methylpyridin-2(1H)-one]: 100 to 300 nM.
The same measure, in the same setting: as for `Cc1cc(OCC23CN(C(=O)N4CCC5(C4)CC5(F)F)C(CNc4cccc5c(N)nccc45)(C2)C3)cc(=O)n1C` (stereo not drawn) [Example 89, 4-((1-(((1-aminoisoquinolin-5-yl)amino)methyl)-2-(1,1-difluoro-5-azaspiro[2.4]heptane-5-carbonyl)-2-azabicyclo[2.1.1]hexan-4-yl)methoxy)-1,6-dimethylpyridin-2(1H)-one], the figure is 10 to 100 nM.
`Cc1cc(OCC23CN(C(=O)CC45CC(C4)C5)C(CNc4cccc5c(N)nccc45)(C2)C3)cc(=O)n1C` [Example 26, 4-((1-(((1-aminoisoquinolin-5-yl)amino)methyl)-2-(2-(bicyclo[1.1.1]pentan-1-yl)acetyl)-2-azabicyclo[2.1.1]hexan-4-yl)methoxy)-1,6-dimethylpyridin-2(1H)-one]: the IC50 lay within 10 to 100 nM.
On the same count and under the same terms, next, `Cn1ccc(OCC23CN(C(=O)N4CCOCC4)C(CNc4cccc5c(N)nccc45)(C2)C3)cc1=O` [Example 31, 4-((1-(((1-aminoisoquinolin-5-yl)amino)methyl)-2-(morpholine-4-carbonyl)-2-azabicyclo[2.1.1]hexan-4-yl)methoxy)-1-methylpyridin-2(1H)-one]: 10 to 100 nM.
Still for that read-out and setting: next, `CC(=O)NC(C)C(=O)N1CC2(COc3cc(C)n(C)c(=O)c3)CC1(CNc1cccc3c(N)nccc13)C2` (stereo not drawn) [Example 29, N-(1-(1-(((1-Aminoisoquinolin-5-yl)amino)methyl)-4-(((1,6-dimethyl-2-oxo-1,2-dihydropyridin-4-yl)oxy)methyl)-2-azabicyclo[2.1.1]hexan-2-yl)-1-oxopropan-2-yl)acetamide]: 10 to 100 nM; `Cc1cc(OCC23CN(c4ccc(C5CC5)nn4)C(CNc4cccc5c(N)nccc45)(C2)C3)cc(=O)n1C` [Example 95, 4-((1-(((1-Aminoisoquinolin-5-yl)amino)methyl)-2-(6-cyclopropylpyridazin-3-yl)-2-azabicyclo[2.1.1]hexan-4-yl)methoxy)-1,6-dimethylpyridin-2(1H)-one]: 10 to 100 nM; `Cn1ccc(OCC23CN(C(=O)NC4CC5(CCC5)C4)C(CNc4cccc5c(N)nccc45)(C2)C3)cc1=O` [Example 75, 1-(((1-aminoisoquinolin-5-yl)amino)methyl)-4-(((1-methyl-2-oxo-1,2-dihydropyridin-4-yl)oxy)methyl)-N-(spiro[3.3]heptan-2-yl)-2-azabicyclo[2.1.1]hexane-2-carboxamide]: 10 to 100 nM.
On the same count and under the same terms, next, `C[C@@H](C(=O)N1CC2(COc3ccn(C)c(=O)c3)CC1(CNc1cccc3c(N)nccc13)C2)c1ccccc1` [Example 12, (R)-4-((1-(((1-aminoisoquinolin-5-yl)amino)methyl)-2-(2-phenylpropanoyl)-2-azabicyclo[2.1.1]hexan-4-yl)methoxy)-1-methylpyridin-2(1H)-one]: 10 to 100 nM; `CN(CC1CC1)C(=O)N1CC2(COc3ccn(C)c(=O)c3)CC1(CNc1cccc3c(N)nccc13)C2` [Example 53, 1-(((1-aminoisoquinolin-5-yl)amino)methyl)-N-(cyclopropylmethyl)-N-methyl-4-(((1-methyl-2-oxo-1,2-dihydropyridin-4-yl)oxy)methyl)-2-azabicyclo[2.1.1]hexane-2-carboxamide]: 10 to 100 nM; `C[C@@H](c1ccccc1)N(C)C(=O)N1CC2(COc3ccn(C)c(=O)c3)CC1(CNc1cccc3c(N)nccc13)C2` [Example 42, (S)-1-(((1-aminoisoquinolin-5-yl)amino)methyl)-N-methyl-4-(((1-methyl-2-oxo-1,2-dihydropyridin-4-yl)oxy)methyl)-N-(1-phenylethyl)-2-azabicyclo[2.1.1]hexane-2-carboxamide]: 10 to 100 nM.
On to `Cn1ccc(OCC23CN(C(N)=O)C(CNc4cccc5c(N)nccc45)(C2)C3)cc1=O` [Example 63, 1-(((1-Aminoisoquinolin-5-yl)amino)methyl)-4-(((1-methyl-2-oxo-1,2-dihydropyridin-4-yl)oxy)methyl)-2-azabicyclo[2.1.1]hexane-2-carboxamide], for which the IC50 lay within 10 to 100 nM.
On the same count and under the same terms, next, `Cc1cc(OCC23CN(C(=O)N4CC[C@H](c5ccccc5)C4)C(CNc4cccc5c(N)nccc45)(C2)C3)cc(=O)n1C` [Example 49, (R)-4-((1-(((1-aminoisoquinolin-5-yl)amino)methyl)-2-(3-phenylpyrrolidine-1-carbonyl)-2-azabicyclo[2.1.1]hexan-4-yl)methoxy)-1,6-dimethylpyridin-2(1H)-one]: 10 to 100 nM.
